# In patent US8993574B2, “Pyrrole antifungal agents” (F2G Ltd, priority 2008, dated 2015):
# Key:
# Format in all cases: cell-based
# [1] = tested on: Aspergillus terreus AT49; experiment: MIC, RPMI medium; settings: for MIC: Aspergillus terreus, AT49, MIC banded into grades, read-out: MIC grade, A. terreus 49; for MIC grade, A. terreus 49: MIC banded into grades
# How it was run: (§1)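 Broth microdilution in RPMI medium with 2% glucose and 0.135 M MOPS (pH 7.0); compounds as doubling dilutions over 50-0.05 mg/L, inoculum 1−2×10^4 cfu/mL. Plates incubated 24-48 h at 35° C; OD 485 nm read, MIC being lowest concentration giving >80% growth inhibition versus drug-free control.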
# [2] = tested on: Aspergillus terreus AT4; experiment: MIC, RPMI medium; settings: for MIC: Aspergillus terreus, AT4, MIC banded into grades, read-out: MIC grade, A. terreus; for MIC grade, A. terreus: MIC banded into grades
# How it was run: as §1
# [3] = tested on: Aspergillus niger; experiment: MIC, RPMI medium; settings: MIC banded into grades; for MIC: Aspergillus niger, read-out: MIC grade, A. niger
# How it was run: as §1
# [4] = tested on: Aspergillus fumigatus AF293; experiment: MIC, RPMI medium; settings: for MIC: Aspergillus fumigatus, AF293, MIC banded into grades, read-out: MIC grade, A. fumigatus; for MIC grade, A. fumigatus: MIC banded into grades
# How it was run: as §1
# [5] = tested on: Aspergillus fumigatus AF210; experiment: MIC, RPMI medium; settings: for MIC: Aspergillus fumigatus, AF210, MIC banded into grades, read-out: MIC grade, A. fumigatus 210; for MIC grade, A. fumigatus 210: MIC banded into grades
# How it was run: as §1
# [6] = tested on: Aspergillus flavus; experiment: MIC, RPMI medium; settings: MIC banded into grades; for MIC: Aspergillus flavus, read-out: MIC grade, A. flavus
# How it was run: as §1
# [7] = tested on: Aspergillus terreus AT49; experiment: MIC, YAG medium; settings: 24 h at 35° C, MIC banded into grades; for MIC: Aspergillus terreus, read-out: MIC grade, A. terreus 49
# How it was run: (§2)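 DMSO stocks diluted in water as doubling series; spore suspension in YAG (glucose, NH4Cl, yeast extract) added to give 1−2×10^4 cfu/mL. 35° C, 24 h. Growth by OD485; MIC at >70% inhibition, mg/L.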
# [8] = tested on: Aspergillus terreus AT4; experiment: MIC, YAG medium; settings: 24 h at 35° C, MIC banded into grades; for MIC: Aspergillus terreus, read-out: MIC grade, A. terreus
# How it was run: as §2
# [9] = tested on: Aspergillus niger; experiment: MIC, YAG medium; settings: 24 h at 35° C, MIC banded into grades; for MIC: Aspergillus niger, read-out: MIC grade, A. niger
# How it was run: as §2
# [10] = tested on: Aspergillus fumigatus AF293; experiment: MIC, YAG medium; settings: 24 h at 35° C, MIC banded into grades; for MIC: Aspergillus fumigatus, read-out: MIC grade, A. fumigatus
# How it was run: as §2
# [11] = tested on: Aspergillus fumigatus AF210; experiment: MIC, YAG medium; settings: 24 h at 35° C, MIC banded into grades; for MIC: Aspergillus fumigatus, read-out: MIC grade, A. fumigatus 210
# How it was run: as §2
# [12] = tested on: Aspergillus flavus; experiment: MIC, YAG medium; settings: 24 h at 35° C, MIC banded into grades; for MIC: Aspergillus flavus, 24 h, read-out: MIC grade, A. flavus
# How it was run: as §2
Structure (SMILES),MIC [1] [µg/mL],MIC [2] [µg/mL],MIC [3] [µg/mL],MIC [4] [µg/mL],MIC [5] [µg/mL],MIC [6] [µg/mL],MIC [7] [µg/mL],MIC [8] [µg/mL],MIC [9] [µg/mL],MIC [10] [µg/mL],MIC [11] [µg/mL],MIC [12] [µg/mL],other results
"Cc1cc(-c2ccccc2)c(C(=O)C(=O)Nc2ccc(N3CCN(C(C)Cc4ccco4)CC3)cc2)n1C (stereo not drawn) [Example 152, 2-(1,5-Dimethyl-3-phenyl-1H-pyrrol-2-yl)-N-{4-[4-(2-furan-2-yl-1-methyl-ethyl)-piperazin-1-yl]-phenyl}-2-oxo-acetamide]",< 1,< 1,< 1,< 1,< 1,< 1,< 1,< 1,< 1,< 1,< 1,< 1,
"Cc1cc(-c2ccccc2)c(C(=O)C(=O)Nc2ccc(N3CCCCC3)cc2)n1C [Example 143, 2-(1,5-Dimethyl-3-phenyl-1H-pyrrol-2-yl)-2-oxo-N-(4-piperidin-1-yl-phenyl)-acetamide]",< 1,< 1,< 1,< 1,< 1,< 1,< 1,< 1,< 1,< 1,< 1,< 1,
"Cc1cc(-c2ccccc2)c(C(=O)C(=O)Nc2ccc(N3CCN(C(=O)C(C)C)CC3)cc2)n1C [Example 145, 2-(1,5-Dimethyl-3-phenyl-1H-pyrrol-2-yl)-N-[4-(4-isobutyryl-piperazin-1-yl)-phenyl]-2-oxo-acetamide]",< 1,< 1,1 to 10,< 1,< 1,< 1,< 1,< 1,< 1,< 1,< 1,< 1,
"Cc1cc(-c2ccccc2)c(C(=O)C(=O)Nc2ccc(-c3ncc(CN4CCCCC4)o3)cc2)n1C [Example 153, 2-(1,5-Dimethyl-3-phenyl-1H-pyrrol-2-yl)-2-oxo-N-[4-(5-piperdin-1-ylmethyl-oxazol-2-yl)-phenyl]-acetamide]",,,,,,,,,,,,,"MIC grade, A. terreus 49 [1]: 3 (A grade of 3 represents an MIC of less than 1 mg/L); MIC grade, A. terreus [2]: 3 (A grade of 3 represents an MIC of less than 1 mg/L); MIC grade, A. niger [3]: 3 (A grade of 3 represents an MIC of less than 1 mg/L); MIC grade, A. fumigatus [4]: 2 (A grade of 2 represents an MIC of from 1 to 10 mg/L); MIC grade, A. fumigatus 210 [5]: 2 (A grade of 2 represents an MIC of from 1 to 10 mg/L); MIC grade, A. flavus [6]: 2 (A grade of 2 represents an MIC of from 1 to 10 mg/L); MIC grade, A. terreus 49 [7]: 3 (A grade of 3 represents an MIC of less than 1 mg/L); MIC grade, A. terreus [8]: 2 (A grade of 2 represents an MIC of from 1 to 10 mg/L); MIC grade, A. niger [9]: 3 (A grade of 3 represents an MIC of less than 1 mg/L); MIC grade, A. fumigatus [10]: 3 (A grade of 3 represents an MIC of less than 1 mg/L); MIC grade, A. fumigatus 210 [11]: 2 (A grade of 2 represents an MIC of from 1 to 10 mg/L); MIC grade, A. flavus [12]: 3 (A grade of 3 represents an MIC of less than 1 mg/L)"
"Cc1cc(-c2ccccc2)c(C(=O)C(=O)Nc2cccc3c(F)cccc23)n1C [Example 127, 2-(1,5-Dimethyl-3-phenyl-1H-pyrrol-2-yl)-N-(5-fluoro-naphthalen-1-yl)-2-oxo-acetamide]",< 1,< 1,< 1,> 10,> 10,< 1,< 1,< 1,< 1,> 10,1 to 10,< 1,
"COCCn1ccc(C(C)C)c1C(=O)C(=O)Nc1ccc(N2CCN(c3cc(C)cc(C)n3)CC2)cc1 [Example 83, N-{4-[4-(4,6-Dimethyl-pyridin-2-yl)-piperazin-1-yl]-phenyl}-2-[3-isopropyl-1-(2-methoxy-ethyl)-1H-pyrrol-2-yl]-2-oxo-acetamide]",> 10,> 10,> 10,> 10,> 10,> 10,1 to 10,1 to 10,> 10,1 to 10,1 to 10,> 10,
Cc1cc(C)nc(N2CCN(c3ccc(NC(=O)C(=O)c4cc(-c5ccccc5)c5n4CCCCC5)cc3)CC2)c1 [41 b],,,,,,,,,,,,,"MIC grade, A. terreus 49 [1]: 1 (a grade of 1 represents an MIC of greater than 10 mg/L); MIC grade, A. terreus [2]: 1 (a grade of 1 represents an MIC of greater than 10 mg/L); MIC grade, A. niger [3]: 1 (a grade of 1 represents an MIC of greater than 10 mg/L); MIC grade, A. fumigatus [4]: 2 (A grade of 2 represents an MIC of from 1 to 10 mg/L); MIC grade, A. fumigatus 210 [5]: 1 (a grade of 1 represents an MIC of greater than 10 mg/L); MIC grade, A. flavus [6]: 1 (a grade of 1 represents an MIC of greater than 10 mg/L); MIC grade, A. terreus 49 [7]: 1 (a grade of 1 represents an MIC of greater than 10 mg/L); MIC grade, A. terreus [8]: 1 (a grade of 1 represents an MIC of greater than 10 mg/L); MIC grade, A. niger [9]: 1 (a grade of 1 represents an MIC of greater than 10 mg/L); MIC grade, A. fumigatus [10]: 2 (A grade of 2 represents an MIC of from 1 to 10 mg/L); MIC grade, A. fumigatus 210 [11]: 2 (A grade of 2 represents an MIC of from 1 to 10 mg/L); MIC grade, A. flavus [12]: 1 (a grade of 1 represents an MIC of greater than 10 mg/L)"
"COCCOCn1c(C)cc(-c2ccccc2)c1C(=O)C(=O)Nc1ccc(N2CCN(c3cc(C)cc(C)n3)CC2)cc1 [Example 138, N-{4-[4-(4,6-Dimethyl-pyridin-2-yl)-piperazin-1-yl]-phenyl}-2-[1-(2-methoxy-ethoxymethyl)-5-methyl-3-phenyl-1H-pyrrol-2-yl]-2-oxo-acetamide]",1 to 10,1 to 10,1 to 10,< 1,< 1,1 to 10,< 1,< 1,< 1,< 1,< 1,1 to 10,

# Further lines, with some results ahead:
MIC [1] [µg/mL],MIC [2] [µg/mL],MIC [3] [µg/mL],MIC [4] [µg/mL],MIC [5] [µg/mL],MIC [6] [µg/mL],MIC [7] [µg/mL],MIC [8] [µg/mL],MIC [9] [µg/mL],MIC [10] [µg/mL],MIC [11] [µg/mL],MIC [12] [µg/mL],Structure (SMILES),other results
< 1,< 1,< 1,< 1,< 1,< 1,< 1,< 1,< 1,< 1,< 1,< 1,"CCCn1c(C)cc(-c2ccccc2)c1C(=O)C(=O)Nc1ccc(N2CCN(c3cc(C)cc(C)n3)CC2)cc1 [Example 35, N-{4-[4-(4,6-Dimethyl-pyridin-2-yl)-piperazin-1-yl]-phenyl}-2-(5-methyl-3-phenyl-1-propyl-1H-pyrrol-2-yl)-2-oxo-acetamide]",
1 to 10,1 to 10,1 to 10,< 1,1 to 10,< 1,< 1,< 1,< 1,< 1,< 1,< 1,"COCCc1cc(-c2ccccc2)c(C(=O)C(=O)Nc2ccc(N3CCN(c4cc(C)cc(C)n4)CC3)cc2)n1C [Example 129, N-{4-[4-(4,6-Dimethyl-pyridin-2-yl)-piperazin-1-yl]-phenyl}-2-[5-(2-methoxy-ethyl)-1-methyl-3-phenyl-1H-pyrrol-2-yl]-2-oxo-acetamide]",
1 to 10,1 to 10,1 to 10,1 to 10,1 to 10,> 10,1 to 10,1 to 10,< 1,< 1,< 1,1 to 10,"Cc1cc(C)nc(N2CCN(c3ccc(NC(=O)C(=O)c4c(-c5ccccc5)cc(C)n4C(C)C)cc3)CC2)c1 [Example 8, N-{4-[4-(4,6-Dimethyl-pyridin-2-yl)-piperazin-1-yl]-phenyl}-2-(1-isopropyl-5-methyl-3-phenyl-1H-pyrrol-2-yl)-2-oxo-acetamide]",
< 1,< 1,< 1,< 1,< 1,< 1,< 1,< 1,< 1,< 1,< 1,< 1,"Cc1cc(C)nc(N2CCN(c3ccc(NC(=O)C(=O)c4c(-c5ccccc5)cc5n4CCC5)cc3)CC2)c1 [Example 6, N-{4-[4-(4,6-Dimethyl-pyridin-2-yl)-piperazin-1-yl]-phenyl}-2-oxo-2-(2-phenyl-6,7-dihydro-5H-pyrrolizin-3-yl)-acetamide]",
